In patent US20240189294A1, “METHOD FOR REGULATING SEBACEOUS GLAND” (BUDDHIST TZU CHI MEDICAL FOUNDATION, priority 2021, published 2024):
“Also recorded” adds a separate entry of the source.

Tests used:
hair follicles = test: Topical application of CK1 inhibitors on shaved back skin of wild-type mice: hair growth phenotype and H&E staining (hair cycle phase); type: in vivo, C57BL/6J mice; settings: topical 0.04 mg every other day, total 0.12 mg per 1 cm^2, mice 8 weeks old; for hair growth on the back skin (phenotype): three times, N=3, FIG. 5B; for hair cycle phase, H&E staining of back skin: FIG. 5C
Experimental: K14-Cr-ERT2-CK1α^fl/fl mice, Mc1r^549del mice and Mc1r^549del mice with CK1α ablation in keratinocytes (CK1α^−/−Mc1r^549del) were collaboratively generated in National Laboratory Animal Center (NLAC) in Tainan, Taiwan, and wild type C57BL/6J mice were also purchased from NLAC. Experiments and animal caring were performed in the Laboratory Animal Center, Tzu Chi University, Hualien, Taiwan, with the approval of Animal Care Committee in accordance with legal and ethical standards. Both male and female mice were used. The hair cycle in wild C57BL/6J mice is related to the age; weeks 4 to 6 are an anagen phase, weeks 6 to 7 are a catagen phase, and weeks 7 to 12 are a telogen phase.
A51 is a gift from Dr. Yinon Ben-Nerian's lab (which was published in Cell, Volume 175, Issue 1, 20 Sep. 2018, pages 171-185). For topical application onto mouse skin, 1 mg of CKI was dissolved in 6 μL dimethyl sulfoxide (DMSO) and mixed with 54 μL of vehicle which contained 60% of white wax and 40% of paraffin oil. The final working concentration is 0.1 mg/cm^2.
D4476 was purchased from Sigma Aldrich (#D1944). For topical application onto mouse skin, 4 mg of CKI was dissolved in 1 mL DMSO as the stock. 10 μL stock was mixed with 40 μL of vehicle which contained 60% of white wax and 40% of paraffin oil. The final working concentration is 0.04 mg/cm^2.
IC261 was purchased from Sigma Aldrich (#40090). For topical application onto mouse skin, 4 mg of CKI was dissolved in 1 mL DMSO as the stock. 10 μL stock was mixed with 40 μL of vehicle which contained 60% of white wax and 40% of paraffin oil. The final working concentration is 0.04 mg/cm^2.
(§1) Mice at 8 weeks old were shaved to remove hair on back skin and cleaned with 75% ethanol. Topical CKIs were applied on the back skin 3 times in one week, and the tissue was harvested on day 7, day 14 and some on day 28 after application of CKIs. The tissue was analyzed by the methods described below.
(§2) Skin samples were harvested at indicated timings for tissue analysis. Paraffin-embedded specimens were cut into 5-μm sections. After deparaffinization (with tissue slides being soaked in xylene three times, each time for 5 min) and rehydration (with slides being incubated in the following graded series of ethanol: 100%, 100%, 95%, 90% and 70%, 5 min each), the slides were rinsed with distilled water for 5 min.
For histopathology by H&E staining, skin tissues were fixed overnight in 10% neutral buffered formalin at 4° C. and then transferred to 70% ethanol before being processed and embedded in paraffin. Paraffin sections were then stained with H&E.

β-catenin = test: Immunohistochemical staining of β-catenin in back skin after topical CK1 inhibitor; type: in vivo, C57BL/6J mice; settings: topical 0.04 mg every other day, total 0.12 mg per 1 cm^2, mice 8 weeks old; FIG. 5D
Experimental: as §1, §2
Paraffin sections were incubated in a humidity chamber for 15 min at 60° C. Sections were deparaffinized in two changes of xylene for 5 min each and hydrated in two changes of 100% ethanol for 5 min each, then in 95% and 80% ethanol for 5 min each, and finally rinsed in distilled water. Antigen retrieval was enhanced by microwaving the slides in a citrate buffer (DAKO; pH 6.0) for 20 min. Endogenous peroxidase activity was quenched with 3% hydrogen peroxide in methanol. After blocking, sections were incubated overnight at 4° C. with β-catenin antibody (1/100; BD Bioscience). Secondary antibodies used were horseradish peroxidase (HRP)-polymer anti-mouse antibodies (Nichirei). […]

[1] = system: hair follicle pigmentation; test: Fontana-Masson staining of hair follicle pigmentation after topical CK1 inhibitor; type: in vivo, C57BL/6J mice; settings: topical 0.04 mg every other day, total 0.12 mg per 1 cm^2, mice 8 weeks old (telogen); FIG. 5E
Experimental: as §1, §2
Fontana-Masson staining and H&E staining were performed by using the kit from ScyTek Laboratories, Inc. according to the manufacturer's instructions.
Briefly, for Fontana-Masson staining, a freshly mixed ammoniacal silver solution was placed in a 58° C. to 60° C. water bath and allowed to equilibrate. The slides were incubated in a warmed ammoniacal silver solution for 30 to 60 min or until the tissue sections became yellow/brown in color, and were then rinsed with distilled water for 3 to 5 seconds (s). The slides were incubated in a gold chloride solution (0.2%) for 30 s and were then rinsed with distilled water for 3 to 5 s. […]

[2] = system: SZ95 cells (human sebocyte cell line); test: WST-1 assay in SZ95 cells; type: cell-based; settings: 1.5×10^4 cells/well, treated for 24 hr, FIG. 8B
Experimental: SZ95 cells (human sebocyte cell line) were maintained in Sebomed basal Medium (Sigma) supplemented with 10% FBS and 5 ng/mL epidermal growth factor under standard cell culture conditions of 37° C. and 5% CO2.
WST-1 assay. Seeding cells with density 1.5×10^4 cells/well in 96-well plate, incubate overnight. Remove medium and add 100 μL fresh medium contain various amount of IC261 (1, 50, 100, 200, 500, 1000 nM) in each well, incubate for 24 hr. Add 10 μL/well WST-1, incubate for 4 hr. Measure the absorbance of OD 450 nm and OD 655 nm by ELISA reader.

PPARγ = test: Western blot of PPARγ in SZ95 cells; type: cell-based, human; settings: IC261 at different concentrations vs DMSO, FIG. 8C
Experimental: (§3) For experiments involving tissues, the tissues were homogenized and lysed in 1× tissue protein extraction reagent (Thermo Fisher) containing protease inhibitor (Millipore) and kept on ice; for experiments involving cells, cell pellet was collected and lysed in 1×radioimmunoprecipitation assay (RIPA) lysis buffer containing protease inhibitor (Millipore) and kept on ice. The total protein concentration was determined using Protein Assay Dye Reagent Concentrate (Bio-Rad) following manufacturer's instruction with a microplate reader. Sample was diluted in SDS-PAGE Sample Buffer (Bio-Rad) and heated at 95° C. for 5 minutes. The protein sample was then resolved on SDS-PAGE gels (TGX FastCast acrylamide solutions, Bio-Rad) and transferred onto poly(vinylidene fluoride) (PVDF) membranes (Millipore). 5% BSA was used, and then the membranes were incubated with primary antibodies overnight at 4° C. The membranes were then washed by Tris-buffered saline with Tween 20 (TBST) and incubated with secondary antibodies for 1 hour at room temperature. The signal was detected using iBright FL1000 Imaging System from Thermo Fisher Scientific.
(§4) The antibodies used in immunohistochemistry (IHC) and Western blotting (WB) in this disclosure were listed in Table 1 below, where manufacturers, catalogue number and the dilution ratio used were provided. […]

LC3B = test: Western blot of LC3B (autophagy marker) in SZ95 cells; type: cell-based, human; settings: FIG. 8D
Experimental: as §3, §4

c-Myc = test: Western blot of c-Myc in SZ95 cells; type: cell-based, human; settings: IC261 at different concentrations vs DMSO, FIG. 8C
Experimental: as §3, §4

| SMILES | hair growth on the back skin (phenotype) (hair follicles) | hair cycle phase, H&E staining of back skin (hair follicles) | expression of β-catenin, immunohistochemical staining (β-catenin) | hair follicle pigmentation, Fontana-Masson staining [1] | IC50 [2] [nM] | PPARγ expression (biomarker for adipogenesis) (PPARγ) | LC3B expression (marker for autophagy) (LC3B) | c-Myc expression (biomarker for undifferentiated sebocytes) (c-Myc) |
| --- | --- | --- | --- | --- | --- | --- | --- | --- |
| NC(=O)c1ccc(-c2nc(-c3ccc4c(c3)OCCO4)c(-c3ccccn3)[nH]2)cc1 [D4476] | significantly induced hair growth | induces an anagen phase of the hair cycle | increased the expression of β-catenin in the matrix of hair follicle | induce hair follicle growth and pigmented hair formation; also recorded: Heavily pigmented hair follicles and shafts |  |  |  |  |
| COc1cc(OC)c(C=C2C(O)=Nc3ccccc32)c(OC)c1 [IC261] | significantly induced hair growth | induces an anagen phase of the hair cycle | increased the expression of β-catenin in the matrix of hair follicle | induce hair follicle growth and pigmented hair formation; also recorded: Heavily pigmented hair follicles and shafts | ~476 | decreased | increase with a dose dependent manner | increased |
